{"source": "ChEMBL document CHEMBL1955766", "about": "“Structure guided development of novel thymidine mimetics targeting Pseudomonas aeruginosa thymidylate kinase: from hit to lead generation” (J Med Chem, 2012)", "test_system": "Mycobacterium tuberculosis variant bovis", "experiment": "Antibacterial activity against Mycobacterium bovis", "type": "functional", "data": [{"smiles": "Cc1cn([C@@H]2C[C@H](O)[C@@H](CNC(=S)Nc3ccc(Cl)c(Cl)c3)O2)c(=O)[nH]c1=O", "values": [{"measurement": "MIC", "result": 25, "unit": "µg/mL"}]}]}
